Measurements: patent publication US12410148B2, “Antibody drug conjugates” (Pharma Mar, S.A., priority 2013, dated 2025)
Values after ≈ are worked out from the molar mass of the structure shown. Values joined by “and” are separate entries in the source; they are usually repeats but may differ in a detail not shown here. Identical values can stand only once. Like-named read-outs stand apart in the source and are kept apart here.

Columns and labels:
BT-474 cells = test: In vitro cytotoxicity, SRB assay, 72 h dose-response; type: cell-based; details: Homo sapiens
Source text: (§1) Nature Protocols, 1, 1112-1 116.

HCC-1954 cells = test: as above; type: cell-based; details: Homo sapiens, HCC1954, 72 h
Source text: as §1

SK-OV-3 cells = test: as above; type: cell-based; details: Homo sapiens
Source text: as §1

SK-BR-3 cells = test: as above; type: cell-based; details: Homo sapiens, SK-BR-3, 72 h
Source text: All tumor cell lines used in this study were obtained from the American Type Culture Collection (ATCC), unless otherwise indicated; BT-474 (ATCC HTB-20, Breast Ductal Carcinoma), SK-BR-3 (ATCC HTB-30, Breast Adenocarcinoma) and HCC-1954 (ATCC CRL-2338, Breast Ductal Carcinoma), all HER2+; MDA-MB-231 (ATCC HTB-26, Breast Adenocarcinoma) and MCF-7 (ATCC HTB-22 Breast Adenocarcinoma, pleural effusion), all HER2-; SK-OV-3 (ATCC HTB-77, Ovary Adenocarcinoma), HER2+; NB-4 (Acute Promyelocytic Leukemia, APL, CD13+, M. Lanotte et al. (1991) NB4, a maturation inducible cell line with t(15;17) marker isolated from a human acute promyelocytic leukemia (M3). […] Cells were maintained at 37° C., 5% CO 2 and 95% humidity in Dulbecco's Modified Eagle's Medium (DMEM) (for MCF and MDA-MB-231 cells), RPMI-1640 (for SK-BR-3, HCC-1954, NB-4, U937, Raji, RPMI-8226, Karpas-299, MOLT-4, Raji-clone #10 and Raji-clone #18 cells), RPMI-1640+1% ITS (for BT-474 cells) or McCOyS (for SK-OV-3 cells), all media supplemented with 10% Fetal Calf Serum (FCS) and 100 units/mL penicillin and streptomycin.
For adherent cells: A colorimetric assay using sulforhodamine B (SRB) was adapted for quantitative measurement of cell growth and cytotoxicity, as described in V. Vichai and K. Kirtikara (2006) Sulforhodamine B colorimetric assay for cytotoxicity screening. […] Briefly, cells were seeded in 96-well microtiter plates and allowed to stand for 24 hours in drug-free medium before treatment with vehicle alone or the indicated compounds for 72 hours. For quantification, cells were washed twice with phosphate buffered saline (PBS), fixed for 15 min in 1% glutaraldehyde solution, rinsed twice with PBS, stained in 0.4% SRB-1% acetic acid solution for 30 min, rinsed several times with 1% acetic acid solution and air-dried. SRB was then extracted in 10 mM trizma base solution and the optical density measured at 490 nm in a microplate spectrophotometer. Cell survival was expressed as percentage of control, untreated cell survival.

[1] = system: Raji-clone #10 (high CD5 expression); test: In vitro cytotoxicity, MTT assay, 72 h dose-response; type: cell-based; details: Homo sapiens
Procedure: (§3) Briefly, MTT solution was added to the cell cultures at a final concentration of 0.5 mg/mL, and incubated for 1 to 4 hours at 37° C. until formazan crystals are formed. Culture medium is carefully removed from the cell cultures and formazan crystals resuspended in 100 μl DMSO. […] Cell survival was expressed as percentage of control, untreated cell survival.

[2] = system: BT-474, HCC-1954, SK-BR-3, MDA-MB-231, MCF-7 and SK-OV-3 cells; test: In vitro cytotoxicity, whole cell panel of Bioactivity Example 1; type: cell-based; details: Homo sapiens
Source text: (§2) All tumor cell lines used in this study were obtained from the American Type Culture Collection (ATCC), unless otherwise indicated; BT-474 (ATCC HTB-20, Breast Ductal Carcinoma), SK-BR-3 (ATCC HTB-30, Breast Adenocarcinoma) and HCC-1954 (ATCC CRL-2338, Breast Ductal Carcinoma), all HER2+; MDA-MB-231 (ATCC HTB-26, Breast Adenocarcinoma) and MCF-7 (ATCC HTB-22 Breast Adenocarcinoma, pleural effusion), all HER2-; SK-OV-3 (ATCC HTB-77, Ovary Adenocarcinoma), HER2+; NB-4 (Acute Promyelocytic Leukemia, APL, CD13+, M. Lanotte et al. (1991) NB4, a maturation inducible cell line with t(15;17) marker isolated from a human acute promyelocytic leukemia (M3). Blood 77, 1080-1086), (CD13+) and U937 (ATCC CRL-1 593.2, Histiocytic Lymphoma, CD13+ and CD4+); Raji (ATCC CCL-86, Burkitt's Lymphoma) (CD13−, CD20+, CD5−, and CD4−); RPMI-8226 (ATCC CRM-CCL-155, Multiple Myeloma) (CD13−, CD20−, CD5− and CD4−); Karpas-299 (DSMZ ACC-31, Non-Hodgkin's Lymphoma) (CD20−, CD5+, and CD4+); MOLT-4 (ATCC CRL-1 582, Acute Lymphoblastic Leukemia, CD5+). In addition, the two Raji cell (ATCC CCL-86, Burkitt's Lymphoma) clones used in this study Raji-clone #10 (high CD5 expression) and Raji-clone18 (null CD5 expression), were provided by Dr. Juan M. Zapata (Instituto de Investigaciones Biomedicas “Alberto Sols”, CSIC-UAM, Madrid, Spain). Cells were maintained at 37° C., 5% CO 2 and 95% humidity in Dulbecco's Modified Eagle's Medium (DMEM) (for MCF and MDA-MB-231 cells), RPMI-1640 (for SK-BR-3, HCC-1954, NB-4, U937, Raji, RPMI-8226, Karpas-299, MOLT-4, Raji-clone #10 and Raji-clone #18 cells), RPMI-1640+1% ITS (for BT-474 cells) or McCOyS (for SK-OV-3 cells), all media supplemented with 10% Fetal Calf Serum (FCS) and 100 units/mL penicillin and streptomycin.
For adherent cells: A colorimetric assay using sulforhodamine B (SRB) was adapted for quantitative measurement of cell growth and cytotoxicity, as described in V. Vichai and K. Kirtikara (2006) Sulforhodamine B colorimetric assay for cytotoxicity screening. Nature Protocols, 1, 1112-1 116. Briefly, cells were seeded in 96-well microtiter plates and allowed to stand for 24 hours in drug-free medium before treatment with vehicle alone or the indicated compounds for 72 hours. For quantification, cells were washed twice with phosphate buffered saline (PBS), fixed for 15 min in 1% glutaraldehyde solution, rinsed twice with PBS, stained in 0.4% SRB-1% acetic acid solution for 30 min, rinsed several times with 1% acetic acid solution and air-dried. SRB was then extracted in 10 mM trizma base solution and the optical density measured at 490 nm in a microplate spectrophotometer. Cell survival was expressed as percentage of control, untreated cell survival. […]

[3] = system: Raji cell clones #10 (high CD5) and #18 (null CD5); test: In vitro cytotoxicity, the two Raji cell clones; type: cell-based, human; details: from mean IC50
Procedure: J. Immunol. Meth., 65, 55-63.
[…] dose-response (DR) curves for 72 hours were performed.

Raji cells = test: In vitro cytotoxicity, MTT assay, 72 h dose-response; type: cell-based, human; details: CD13−, CD20+, CD5−, CD4−
Procedure: as §3

[4] = system: HCC-1954, SK-BR-3, MDA-MB-231 and MCF-7 cells; test: In vitro cytotoxicity, whole breast cancer cell panel
Source text: as §2
For adherent cells: A colorimetric assay using sulforhodamine B (SRB) was adapted for quantitative measurement of cell growth and cytotoxicity, as described in V. Vichai and K. Kirtikara (2006) Sulforhodamine B colorimetric assay for cytotoxicity screening. Nature Protocols, 1, 1112-1 116. Briefly, cells were seeded in 96-well microtiter plates and allowed to stand for 24 hours in drug-free medium before treatment with vehicle alone or the indicated compounds for 72 hours. For quantification, cells were washed twice with phosphate buffered saline (PBS), fixed for 15 min in 1% glutaraldehyde solution, rinsed twice with PBS, stained in 0.4% SRB-1% acetic acid solution for 30 min, rinsed several times with 1% acetic acid solution and air-dried. SRB was then extracted in 10 mM trizma base solution and the optical density measured at 490 nm in a microplate spectrophotometer. Cell survival was expressed as percentage of control, untreated cell survival.
The IC50 value refers to the concentration of compound inducing a 50% of cell death as compared to the control cell survival.
Standard dose-response (DR) curves for 72 hours were performed.

Q: Which results are given for `COC1=CC[C@@H]([C@@H](C)/C=C(C)/C=C\C=C/C(=O)N[C@H](C(=O)N/C=C\C[C@H](C/C=C(\C)Cl)OC(=O)NCCCNC(=O)CCCCCN2C(=O)C=CC2=O)C(C)(C)C)OC1=O` [Compound 1]?
A: IC50 (BT-474 cells; BT-474, 72 h): 0.0064 µg/mL and 7.47 nM; IC50 (HCC-1954 cells; HER2+, 72 h, read-out: IC50): 0.00096 µg/mL and 1.12 nM; IC50 (SK-OV-3 cells; SK-OV-3, 72 h): 0.0057 µg/mL and 6.66 nM; IC50 (SK-BR-3 cells; HER2+, 72 h, read-out: IC50): 0.00089 µg/mL and 1.04 nM; IC50 ([1]; C#10 (high CD5)): 0.0029 µg/mL and 3.39 nM; IC50 ([1]; clone #10, CD5 expressing): 3.4 nM; IC50 ([2]; read-out: IC50 values along the different cell lines tested (range)): 0.00089 µg/mL to 0.0064 µg/mL and 1.04 nM to 7.47 nM; IC50 ([2]; read-out: mean IC50 value across the whole cell panel): 0.00341 µg/mL and 3.98 nM; more active in CD5 overexpressing cells (clone #10) than in CD5 null cells (clone #18) [3]: around 1 log

Q: How did the IC50 (BT-474 cells; BT-474, HER2+, 72 h, read-out: IC50) turn out when `COC1=CC[C@@H]([C@@H](C)/C=C(C)/C=C\C=C/C(=O)N[C@H](C(=O)N/C=C\C[C@H](C/C=C(\C)Cl)OC(=O)NCCCN)C(C)(C)C)OC1=O` [Compound 4] was run?
A: 0.00174 µg/mL and 2.62 nM

Q: What about the IC50 (SK-OV-3 cells; SK-OV-3, ovary, HER2+, 72 h, read-out: IC50) of the same molecule?
A: 0.00073 µg/mL and 1.1 nM

Q: And the IC50 (Raji cells)?
A: 0.00141 µg/mL

Q: What about the IC50 (Raji cells; read-out: IC50) of the same molecule?
A: 2.12 nM

Q: And the IC50 (Raji cells; Homo sapiens, Raji, read-out: IC50)?
A: 0.00265 µg/mL and 4 nM

Q: What about the IC20 ([1]; C#10 (high CD5)) of the same molecule?
A: 0.00465 µg/mL and 7.01 nM

Q: And the IC50 ([1]; C#10 (high CD5))?
A: 0.0099 µg/mL and 14.9 nM

Q: And the IC50 ([1]; clone #10, CD5 expressing)?
A: 15.7 nM

Q: And the IC50 ([2]; six cell lines, read-out: mean IC50 value across the whole cell panel)?
A: 0.000569 µg/mL and 0.857 nM

Q: And the IC50 ([2]; six cell lines, two independent experiments, read-out: IC50 values along the different cell lines tested (range))?
A: 0.089 to 1.7 ng/mL (≈ 0.134 to 2.56 nM)

Q: What about the IC50 ([4]; Homo sapiens, read-out: mean IC50 value across the whole cell panel, four breast cell lines) of the same molecule?
A: 0.000197 µg/mL and 0.296 nM

Q: And the “mean IC50 value across the whole cell panel” value ([4]; four breast cell lines)?
A: 0.33 ng/mL

Q: And the IC50 ([4]; read-out: mean IC50 value across the whole cell panel, four breast cell lines)?
A: 0.498 nM

Q: What does the source list for `COC1=CC[C@@H]([C@@H](C)/C=C(C)/C=C\C=C/C(=O)N[C@H](C(=O)N/C=C\C[C@H](C/C=C(\C)Cl)OC(N)=O)C(C)(C)C)OC1=O` [Compound 40]?
A: IC50 (HCC-1954 cells): 7.1e-05 µg/mL and 0.116 nM; IC50 (SK-BR-3 cells): 4.9e-05 µg/mL and 0.081 nM; IC50 (Raji cells): 0.000115 µg/mL and 0.000285 µg/mL; IC50 (Raji cells; read-out: IC50): 0.19 nM and 0.47 nM; IC50 ([1]; C#10 (high CD5)): 0.495 ng/mL; IC50 ([1]; clone #10, CD5 expressing): 0.817 nM; IC50 ([4]; Homo sapiens, read-out: IC50 values along the different cell lines tested (range)): 0.049 to 0.173 ng/mL; IC50 ([4]; Homo sapiens, read-out: mean IC50 value across the whole cell panel): 0.000106 µg/mL and 0.175 nM
